# Experimental data: paper PMC7898822, “RNA‐PROTACs: Degraders of RNA‐Binding Proteins” (Angewandte Chemie (International Ed. in English), 2020)
# How the values were obtained:
# K562 cells [1] = experiment: Confocal microscopy, intracellular localization in K562 cells; type: cell-based, human; settings: FAM labelled ORN3P1, 1 µM, 24 h
# myc-Lin28A = experiment: Ubiquitination assay of myc-Lin28A in 22Rv1 cells; type: cell-based; settings: HA-Ub co-transfected, 500 nM, 48 h, anti-HA western blot after cMyc IP
# Experimental: (§1) Next, we investigated the ability of ORN3P1 and ORN7P1 to mediate ubiquitination of Lin28 in cells, using a previously described protocol. ^[32] Cells from the prostate cancer cell line 22RV1, which express very low levels of Lin28, were co‐transfected with two plasmids expressing pCMV‐myc‐Lin28A and HA‐tagged polyubiquitin (HA‐Ub).
# (§2) After 48 h of incubation with ORN3P1 and ORN7P1, the tagged Lin28 (and the control QKI) was immunoprecipitated using an anti‐Myc antibody. The isolated protein was then analyzed by western blotting using the anti‐HA and anti‐c‐Myc antibodies. Consistent with other previously described PROTAC reagents,[ ^32 , ^33 ]
# (§3) The protein extracts (12-17 µg) were run on a 4-20% SDS-PAGE and transferred on a nitrocellulose blotting membrane 0.22 µm (GE Healthcare) using the Trans-Blot transfer device (Biorad). Membranes were blocked with 5% milk and incubated with the primary antibody overnight at 4 °C. Membranes were washed with 0.05% PBS-T and reacted with the secondary antibody for 1 h in 5% milk. The proteins were detected using the anti-lin28a antibody (Cell Signaling technology, D9F5), anti-lin28b antibody (Cell Signaling technology, 4196S), anti-rbfox1 (NovusBio, NBP2-13169SS), at 1:1000 and anti-hrnp c antibody […]
# (§4) (Abcam, AB133607) at 1:10000 dilutions. […]
# (§5) on a ChemiDoc MP imager (Biorad). The intensity of the signal was quantified using the ImageJ-Fiji software. […]
# QKI (pDEST-Myc-QKI) = experiment: Ubiquitination assay of Myc-QKI (negative control RBP) in 22Rv1 cells; type: cell-based; settings: pDEST-Myc-QKI and HA-Ub, 500 nM, 48 h
# Experimental: as §1, §2, §3, §4, §5
# Lin28_ZKD = target: T1, Lin28_ZKD (Homo sapiens, UniProt Q9H9Z2); experiment: Fluorescence polarization competition assay (displacement of let7FAM from Lin28_ZKD); type: binding; settings: competition FP, conjugate vs parent
# T1 construct: construct encoding amino acids 124–186 of human Lin28; His6; made in house; host or cells: Escherichia coli BL21 (DE3) Codon+ (RIL)
# T1 sequence (Q9H9Z2 124-186): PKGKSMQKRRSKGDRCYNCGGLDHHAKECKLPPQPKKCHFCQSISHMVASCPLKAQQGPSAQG
# Experimental: Fluorescence Polarization Assay. Fluorescence polarization titration assay was carried out by titrating Lin28_ZKD protein into FAM-labeled PreE-let-7 at a 10 nM final concentration and buffer (10 mM HEPES, 150 mM NaCl, 10 µM ZiCl2, pH 7,4). The assay plate was briefly vortexed, and air bubbles were removed by spinning at 1000 rpm. The fluorescence anisotropy was measured on a Spectra Max Paradigm multimode plate reader (Molecular Devices). The fluorescence polarization competition […]
# preE-let-7. The concentration of Lin28_ ZKD is kept at 40 nM, a value in the range of the dissociation constant of Lin28_ZKD and preE-let-7 determined through fluorescence polarization titration assay, whereas preE-let-7 concentration is kept constant at 10 nM. FP competitive binding assays were performed on 384-well plates (#3575, Corning) with a total well volume of 10 µL.
# Fluorescence polarization readings were transferred into Prism 7.0 (GraphPad). All fluorescence polarization assays were repeated at least three times and the anisotropy values fitted using GraphPad Prism software using 1:1 binding/inhibition model. […]
# Lin28A = experiment: Confocal microscopy, LIN28A level in K562 cells; type: cell-based, human; settings: FAM labelled ORN3P1, 1 µM, 24 h
# K562 cells [2] = experiment: Intracellular uptake of FAM-labelled oligonucleotides, fluorescence microscopy; type: cell-based, human; settings: FAM-conjugated, 1 µM, 24 h
smiles,measurement,setting,value
CC[C@H](C)[C@H](NC(=O)[C@H](Cc1ccc(O)cc1)NC(=O)[C@@H]1C[C@@H](O)CN1C(=O)[C@H](C)NC(=O)[C@H](CC(C)C)NC(=O)CCCCCNC(=O)[C@@H](N)CSC1CC(=O)N(CCOP(=O)(S)OC[C@H]2O[C@@H](n3cnc4c(N)ncnc43)[C@H](OCCOC)[C@@H]2OP(=O)(S)OC[C@H]2O[C@@H](n3cnc4c(=O)[nH]c(N)nc43)[C@H](OCCOC)[C@@H]2OP(=O)(S)OC[C@H]2O[C@@H](n3cnc4c(=O)[nH]c(N)nc43)[C@H](OCCOC)[C@@H]2OP(=O)(S)OC[C@H]2O[C@@H](n3cnc4c(N)ncnc43)[C@H](OCCOC)[C@@H]2OP(=O)(S)OC[C@H]2O[C@@H](n3cnc4c(=O)[nH]c(N)nc43)[C@H](OCCOC)[C@@H]2OP(=O)(S)OC[C@H]2O[C@@H](n3cnc4c(N)ncnc43)[C@H](OCCOC)[C@@H]2OP(=O)(S)OC[C@H]2O[C@@H](n3cc(C)c(=O)[nH]c3=O)[C@H](OCCOC)[C@@H]2O)C1=O)C(=O)O (stereo partly drawn) [ORN3P1],intracellular presence by confocal microscopy,K562 cells [1],in the cytoplasm and nuclei of K562 cells
same,ubiquitination of myc-Lin28A,myc-Lin28A,showed a smear on the gel towards higher molecular weight
same,ubiquitination of QKI,QKI (pDEST-Myc-QKI),showed no such effects
same,competition for Lin28_ZKD relative to parent unconjugated oligonucleotides,Lin28_ZKD,competed slightly more strongly
same,LIN28A degradation by confocal microscopy,Lin28A,LIN28A is degraded
same,intracellular localization,K562 cells [2],present in the cytoplasm and nuclei of K562 cells
